# Measured values from PubChem BioAssay (NCI).
#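 Dose response: 5 concentrations. Exposure: 48 h. Format: 96-well plates. Endpoint: linear interpolation; highest concentration if not reached. TGI: total growth inhibition.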
# What was measured:
# Experiment in all cases: DTP human tumour cell line panel, 48 h
# EKVX NSCLC = test system: EKVX NSCLC
# MCF7 breast = test system: MCF7 breast
# NCI-H522 lung = test system: NCI-H522 lung
# A498 renal = test system: A498 renal
# NCI-H460 lung = test system: NCI-H460 lung
# IGROV1 ovarian = test system: IGROV1 ovarian
# KM12 colon = test system: KM12 colon
# SK-MEL-2 melanoma = test system: SK-MEL-2 melanoma
# LOX IMVI melanoma = test system: LOX IMVI melanoma
# SNB-19 CNS = test system: SNB-19 CNS
# UACC-62 melanoma = test system: UACC-62 melanoma
# NCI/ADR-RES ovarian = test system: NCI/ADR-RES ovarian
# HT29 colon = test system: HT29 colon
# PC-3 prostate = test system: PC-3 prostate
# TK-10 renal = test system: TK-10 renal
# HOP-62 NSCLC = test system: HOP-62 NSCLC
# DU-145 prostate = test system: DU-145 prostate
# SR leukemia = test system: SR leukemia
# MDA-N = test system: MDA-N
# HL-60(TB) leukemia = test system: HL-60(TB) leukemia
# SF-539 CNS = test system: SF-539 CNS
# SK-MEL-28 melanoma = test system: SK-MEL-28 melanoma
# CCRF-CEM leukemia = test system: CCRF-CEM leukemia
# SK-MEL-5 melanoma = test system: SK-MEL-5 melanoma
# COLO 205 colon = test system: COLO 205 colon
# SW-620 colon = test system: SW-620 colon
# ACHN renal = test system: ACHN renal
# HS 578T breast = test system: HS 578T breast
# NCI-H226 lung = test system: NCI-H226 lung
# OVCAR-5 ovarian = test system: OVCAR-5 ovarian
# RXF 393 renal = test system: RXF 393 renal
# M14 melanoma = test system: M14 melanoma
# HOP-92 NSCLC = test system: HOP-92 NSCLC
# HCT-116 colon = test system: HCT-116 colon
# MDA-MB-231 breast = test system: MDA-MB-231 breast
# SF-268 CNS = test system: SF-268 CNS
# MDA-MB-435 = test system: MDA-MB-435
# U251 CNS = test system: U251 CNS
# 786-0 renal = test system: 786-0 renal
# K-562 leukemia = test system: K-562 leukemia
# UACC-257 melanoma = test system: UACC-257 melanoma
# SN12C renal = test system: SN12C renal
# OVCAR-3 ovarian = test system: OVCAR-3 ovarian
# SNB-75 CNS = test system: SNB-75 CNS
# CAKI-1 renal = test system: CAKI-1 renal
# NCI-H23 lung = test system: NCI-H23 lung
# OVCAR-4 ovarian = test system: OVCAR-4 ovarian
# MOLT-4 leukemia = test system: MOLT-4 leukemia
# OVCAR-8 ovarian = test system: OVCAR-8 ovarian
# MALME-3M melanoma = test system: MALME-3M melanoma
# HCT-15 colon = test system: HCT-15 colon
# SK-OV-3 ovarian = test system: SK-OV-3 ovarian
# RPMI-8226 leukemia = test system: RPMI-8226 leukemia
# A549 NSCLC = test system: A549 NSCLC
# SF-295 CNS = test system: SF-295 CNS
# HCC-2998 colon = test system: HCC-2998 colon
# UO-31 renal = test system: UO-31 renal
# BT-549 breast = test system: BT-549 breast
smiles,measurement,setting,value
COC(=S)OC1CC(n2cnc3c(=O)[nH]cnc32)OC1CO[Si](C)(C)C(C)(C)C (centres undefined),TGI,EKVX NSCLC,> 100 µM
same,TGI,MCF7 breast,> 100 µM
same,TGI,NCI-H522 lung,> 100 µM
same,TGI,A498 renal,> 100 µM
same,TGI,NCI-H460 lung,> 100 µM
same,TGI,IGROV1 ovarian,> 100 µM
same,TGI,KM12 colon,> 100 µM
same,TGI,SK-MEL-2 melanoma,> 100 µM
same,TGI,LOX IMVI melanoma,> 100 µM
same,TGI,SNB-19 CNS,> 100 µM
same,TGI,UACC-62 melanoma,> 100 µM
same,TGI,NCI/ADR-RES ovarian,> 100 µM
same,TGI,HT29 colon,> 100 µM
same,TGI,PC-3 prostate,> 100 µM
same,TGI,TK-10 renal,> 100 µM
same,TGI,HOP-62 NSCLC,> 100 µM
same,TGI,DU-145 prostate,> 100 µM
same,TGI,SR leukemia,> 100 µM
same,TGI,MDA-N,> 100 µM
same,TGI,HL-60(TB) leukemia,> 100 µM
same,TGI,SF-539 CNS,> 100 µM
same,TGI,SK-MEL-28 melanoma,> 100 µM
same,TGI,CCRF-CEM leukemia,> 100 µM
same,TGI,SK-MEL-5 melanoma,> 100 µM
same,TGI,COLO 205 colon,> 100 µM
same,TGI,SW-620 colon,> 100 µM
same,TGI,ACHN renal,> 100 µM
same,TGI,HS 578T breast,> 100 µM
same,TGI,NCI-H226 lung,> 100 µM
same,TGI,OVCAR-5 ovarian,> 100 µM
same,TGI,RXF 393 renal,> 100 µM
same,TGI,M14 melanoma,> 100 µM
same,TGI,HOP-92 NSCLC,> 100 µM
same,TGI,HCT-116 colon,> 100 µM
same,TGI,MDA-MB-231 breast,> 100 µM
same,TGI,SF-268 CNS,> 100 µM
same,TGI,MDA-MB-435,> 100 µM
same,TGI,U251 CNS,> 100 µM
same,TGI,786-0 renal,> 100 µM
same,TGI,K-562 leukemia,> 100 µM
same,TGI,UACC-257 melanoma,> 100 µM
same,TGI,SN12C renal,> 100 µM
same,TGI,OVCAR-3 ovarian,> 100 µM
same,TGI,SNB-75 CNS,> 100 µM
same,TGI,CAKI-1 renal,> 100 µM
same,TGI,NCI-H23 lung,> 100 µM
same,TGI,OVCAR-4 ovarian,> 100 µM
same,TGI,MOLT-4 leukemia,> 100 µM
same,TGI,OVCAR-8 ovarian,> 100 µM
same,TGI,MALME-3M melanoma,> 100 µM
same,TGI,HCT-15 colon,> 100 µM
same,TGI,SK-OV-3 ovarian,> 100 µM
same,TGI,RPMI-8226 leukemia,> 100 µM
same,TGI,A549 NSCLC,> 100 µM
same,TGI,SF-295 CNS,> 100 µM
CN(C)c1ccc(/C=N/N=C2\C(=O)Nc3c(Cl)cc(Cl)cc32)cc1,TGI,EKVX NSCLC,> 100 µM
same,TGI,MCF7 breast,> 100 µM
same,TGI,A498 renal,> 100 µM
same,TGI,NCI-H460 lung,> 100 µM
same,TGI,IGROV1 ovarian,> 100 µM
same,TGI,KM12 colon,36.4 µM
same,TGI,SK-MEL-2 melanoma,> 100 µM
same,TGI,LOX IMVI melanoma,> 100 µM
same,TGI,HCC-2998 colon,> 100 µM
same,TGI,SNB-19 CNS,> 100 µM
same,TGI,UO-31 renal,> 100 µM
same,TGI,BT-549 breast,> 100 µM
same,TGI,UACC-62 melanoma,> 100 µM
same,TGI,NCI/ADR-RES ovarian,89 µM
same,TGI,HT29 colon,> 100 µM
same,TGI,PC-3 prostate,> 100 µM
same,TGI,TK-10 renal,> 100 µM
same,TGI,HOP-62 NSCLC,> 100 µM
same,TGI,SR leukemia,33 µM
same,TGI,MDA-N,33.8 µM
same,TGI,HL-60(TB) leukemia,> 100 µM
same,TGI,SF-539 CNS,> 100 µM
same,TGI,SK-MEL-28 melanoma,> 100 µM
same,TGI,CCRF-CEM leukemia,> 100 µM
same,TGI,SK-MEL-5 melanoma,> 100 µM
same,TGI,COLO 205 colon,> 100 µM
same,TGI,SW-620 colon,> 100 µM
same,TGI,ACHN renal,> 100 µM
same,TGI,HS 578T breast,> 100 µM
same,TGI,NCI-H226 lung,> 100 µM
same,TGI,OVCAR-5 ovarian,> 100 µM
same,TGI,RXF 393 renal,> 100 µM
same,TGI,M14 melanoma,> 100 µM
same,TGI,HOP-92 NSCLC,> 100 µM
same,TGI,HCT-116 colon,> 100 µM
same,TGI,MDA-MB-231 breast,> 100 µM
same,TGI,MDA-MB-435,> 100 µM
same,TGI,U251 CNS,> 100 µM
same,TGI,786-0 renal,> 100 µM
same,TGI,K-562 leukemia,> 100 µM
same,TGI,UACC-257 melanoma,> 100 µM
same,TGI,SN12C renal,> 100 µM
same,TGI,OVCAR-3 ovarian,> 100 µM
same,TGI,SNB-75 CNS,56.9 µM
same,TGI,CAKI-1 renal,> 100 µM
same,TGI,NCI-H23 lung,> 100 µM
same,TGI,OVCAR-4 ovarian,> 100 µM
same,TGI,MOLT-4 leukemia,> 100 µM
same,TGI,OVCAR-8 ovarian,> 100 µM
same,TGI,MALME-3M melanoma,> 100 µM
same,TGI,HCT-15 colon,> 100 µM
same,TGI,SK-OV-3 ovarian,> 100 µM
same,TGI,A549 NSCLC,> 100 µM
same,TGI,SF-295 CNS,> 100 µM
